Test results as given in the supplement of paper PMC10307832.

Key:
Assay in all cases: relative viability (nuclei count vs DMSO), 5 days (fraction); higher = more cells survive
Avagacestat + Linsitinib = compound: NC(=O)[C@@H](CCC(F)(F)F)N(Cc1ccc(-c2ncon2)cc1F)S(=O)(=O)c1ccc(Cl)cc1 [Avagacestat] + C[C@]1(O)C[C@@H](c2nc(-c3ccc4ccc(-c5ccccc5)nc4c3)c3c(N)nccn32)C1 [Linsitinib] (partner 1 µM)
In short: (§1)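 Cells from lung cancer lines were seeded into 1536-well plates and, one day later, dosed by pin tool. Treatments were either a single drug or a fixed dose of an anchor drug with five library-drug doses (not always all listed) in √10 steps. After 5 days, nuclei were stained in a one-step fixation (final 0.05% Triton X-100, 1% formaldehyde, 1 ug/ml Hoechst) and counted on 4× images, and relative viability is the treated-to-vehicle nuclei ratio, as the median of duplicate plates.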

Avagacestat + Foretinib = compound: NC(=O)[C@@H](CCC(F)(F)F)N(Cc1ccc(-c2ncon2)cc1F)S(=O)(=O)c1ccc(Cl)cc1 [Avagacestat] + COc1cc2c(Oc3ccc(NC(=O)C4(C(=O)Nc5ccc(F)cc5)CC4)cc3F)ccnc2cc1OCCCN1CCOCC1 [Foretinib] (partner 0.25 µM)
In short: as §1

Avagacestat + Luminespib = compound: NC(=O)[C@@H](CCC(F)(F)F)N(Cc1ccc(-c2ncon2)cc1F)S(=O)(=O)c1ccc(Cl)cc1 [Avagacestat] + CCNC(=O)c1noc(-c2cc(C(C)C)c(O)cc2O)c1-c1ccc(CN2CCOCC2)cc1 [Luminespib] (partner 0.01 µM)
In short: as §1

Avagacestat + Navitoclax = compound: NC(=O)[C@@H](CCC(F)(F)F)N(Cc1ccc(-c2ncon2)cc1F)S(=O)(=O)c1ccc(Cl)cc1 [Avagacestat] + CC1(C)CCC(c2ccc(Cl)cc2)=C(CN2CCN(c3ccc(C(=O)NS(=O)(=O)c4ccc(N[C@H](CCN5CCOCC5)CSc5ccccc5)c(S(=O)(=O)C(F)(F)F)c4)cc3)CC2)C1 [Navitoclax] (partner 0.5 µM)
In short: as §1

| Cell Line | relative viability (Avagacestat + Linsitinib; first compound 0.08 µM) | relative viability (Avagacestat + Linsitinib; first compound 0.253 µM) | relative viability (Avagacestat + Linsitinib; first compound 0.8 µM) | relative viability (Avagacestat + Linsitinib; first compound 2.53 µM) | relative viability (Avagacestat + Linsitinib; first compound 8 µM) | relative viability (Avagacestat + Foretinib; first compound 0.08 µM) | relative viability (Avagacestat + Foretinib; first compound 0.253 µM) | relative viability (Avagacestat + Foretinib; first compound 0.8 µM) | relative viability (Avagacestat + Foretinib; first compound 2.53 µM) | relative viability (Avagacestat + Foretinib; first compound 8 µM) | relative viability (Avagacestat + Luminespib; first compound 0.08 µM) | relative viability (Avagacestat + Luminespib; first compound 0.253 µM) | relative viability (Avagacestat + Luminespib; first compound 0.8 µM) | relative viability (Avagacestat + Luminespib; first compound 2.53 µM) | relative viability (Avagacestat + Luminespib; first compound 8 µM) | relative viability (Avagacestat + Navitoclax; first compound 0.08 µM) | relative viability (Avagacestat + Navitoclax; first compound 0.253 µM) | relative viability (Avagacestat + Navitoclax; first compound 0.8 µM) | relative viability (Avagacestat + Navitoclax; first compound 2.53 µM) | relative viability (Avagacestat + Navitoclax; first compound 8 µM) |
| --- | --- | --- | --- | --- | --- | --- | --- | --- | --- | --- | --- | --- | --- | --- | --- | --- | --- | --- | --- | --- |
| NCI-H358 | 0.774 | 0.822 | 0.839 | 0.687 | 0.724 | 0.7 | 0.866 | 0.737 | 0.598 | 0.665 | 0.449 | 0.467 | 0.368 | 0.412 | 0.244 |  |  |  |  |  |
| NCI-H522 |  |  |  |  |  |  |  |  |  |  | 1.08 | 1.12 | 1.03 | 1.21 | 1.15 |  |  |  |  |  |
| NCI-H650 | 1.22 | 0.927 | 1.08 | 0.912 | 0.848 | 1.05 | 1.08 | 1.11 | 1.08 | 1.11 | 0.91 | 0.965 | 0.92 | 0.831 | 0.818 |  |  |  |  |  |
| NCI-H661 | 0.736 | 0.713 | 0.634 |  | 0.566 | 1.04 | 1.17 | 1.07 | 0.974 | 1.08 | 0.983 | 1.08 | 0.946 | 0.913 | 1.01 |  |  |  |  |  |
| NCI-H1299 | 0.987 | 1.12 | 1 | 0.988 | 0.926 | 1.07 | 1.12 | 1.15 | 1.09 | 1.12 |  |  |  |  |  | 1.04 | 1.03 | 1.08 | 1.08 | 1.04 |
| NCI-H1563 | 1.25 | 1.26 | 1.18 | 1.03 | 1 | 1.1 | 0.999 | 0.879 | 0.803 | 0.842 | 0.552 | 0.558 | 0.575 | 0.503 | 0.543 |  |  |  |  |  |
| NCI-H1650 |  |  |  |  |  | 1.47 | 1.11 | 1.06 | 1.04 | 1.09 | 0.222 | 0.203 | 0.212 | 0.202 | 0.193 | 1.1 | 1.31 | 1.52 | 1.43 | 1.12 |
| NCI-H1703 | 0.982 | 0.768 | 0.854 | 0.784 | 0.93 | 0.315 | 0.318 | 0.384 | 0.338 | 0.308 |  |  |  |  |  | 1.16 | 0.993 | 1.17 | 1.11 | 0.891 |
| NCI-H1792 | 0.648 | 0.424 | 0.692 | 0.383 | 0.368 |  |  |  |  |  | 0.649 | 0.478 | 0.522 | 0.414 | 0.33 | 1.25 | 0.584 | 1.13 | 0.538 | 0.417 |
| NCI-H2170 |  |  |  |  |  | 1.02 | 1.12 | 0.988 | 0.899 | 1.01 | 0.721 | 0.588 | 0.817 | 0.399 | 0.754 | 0.745 | 0.594 | 0.621 | 0.417 | 0.548 |
| NCI-H2342 |  |  |  |  |  | 1.22 | 1.05 | 0.924 | 1.02 | 0.939 | 0.742 | 0.703 | 0.648 | 0.709 | 0.663 |  |  |  |  |  |
